Results on eight molecules are retold here after publication PMC5666381, “Rapid Assessment of the Toxicity of Fungal Compounds Using Luminescent Vibrio qinghaiensis sp. Q67” (Toxins, 2017).

In brackets after ≈: the same amount, converted by molar mass.

Data set [1] relates to Vibrio qinghaiensis sp. Q67. Nature of the data set: microbe, parasite or virus in culture. Format: cell-based. Particulars: for IC50: Vibrio qinghaiensis, 0.25 h, read-out: IC50, luminescence inhibition of standard mycotoxins; for IC50 / IC50, luminescence inhibition of standard mycotoxins: V. qinghaiensis sp. Q67, 15 min exposure, 22 °C, 0.8% NaCl.
For another data set, the system named is kidney cells. To be noted: cited from earlier work; for IC50: read-out: IC50, cytotoxic effects, ref Bouslimi et al. (2008) [29]; for IC50, cytotoxic effects: value in brackets after the µM value, ref Bouslimi et al. (2008) [29].
Data set [2] concerns Photobacterium phosphoreum. Particulars: Photobacterium phosphoreum bioluminescence; cited from earlier work.
Data set [3] deals with human promyelocytic leukemia cell line HL60. To be noted: HL60 cells; ref Nagashima and Nakagawa (2014) [13]; cited from earlier work.
For a further data set, the system named is mice. Particulars: ref Kouadio et al. (2013) [14]; cited from earlier work.
Data set [4] concerns V. fischeri. Particulars: ref Menz et al. (2013) [25]; cited from earlier work.
The subject of data set [5] is V. fischeri. To be noted: cited from earlier work.
The subject of another data set is Aliivibrio fischeri. Particulars: cited from earlier work.

For orientation: IC50 means the point on the concentration scale where inhibition reaches its midpoint. The EC50 is the concentration needed to bring the measured effect to its halfway point.

Regarding `CC1=C2C(=CO[C@H](C)[C@H]2C)C(O)=C(C(=O)O)C1=O` [Citrinin], the half-inhibitory concentration (IC50) in data set [1] was 12.23 ± 0.1 µg/mL (≈ 48.9 µM). In addition, in the data set on kidney cells, the half-inhibitory concentration (IC50) was 220 µM and the “IC50, cytotoxic effects” value is 55.06 µg/mL (≈ 220 µM). Also, in data set [2], the “EC50 for toxic effects” value is 20.05 µg/mL.
For `CC1=C[C@H]2O[C@@H]3[C@H](O)C[C@](C)([C@@]2(CO)[C@H](O)C1=O)[C@]31CO1` [Deoxynivalenol], in data set [3], the “IC50, cell proliferation” value was 0.36 µg/mL (≈ 1.21 µM). Further, the “IC50, luminescence inhibition of standard mycotoxins” value in data set [1] turned out to be 30.74 ± 0.33 µg/mL. In addition, the “no-observed-adverse-effect level (NOAEL)” value with mice is recorded as “lower than 45 µg kg^−1 day^−1”.
With `CCCC[C@@H](C)[C@@H](OC(=O)C[C@@H](CC(=O)O)C(=O)O)[C@H](C[C@@H](C)C[C@H](O)CCCC[C@@H](O)C[C@H](O)[C@H](C)N)OC(=O)C[C@@H](CC(=O)O)C(=O)O` [Fumonisin B1], the “IC50, luminescence inhibition of standard mycotoxins” value in data set [1] stood at 14.88 ± 0.14 µg/mL.
On to `C[C@@H]1Cc2c(Cl)cc(C(=O)N[C@@H](Cc3ccccc3)C(=O)O)c(O)c2C(=O)O1` [Ochratoxin A], for which the IC50 in data set [1] is 11.02 ± 0.1 µg/mL (≈ 27.3 µM); in the data set on kidney cells it was 50 µM. Further, in the data set with kidney cells, the “IC50, cytotoxic effects” value is 20.15 µg/mL (≈ 49.9 µM). The “EC50 for toxic effects” value in data set [2] was 16.88 µg/mL.
On to `O=C1C=C2C(=CCOC2O)O1` (stereo not shown) [Patulin], for which, in data set [1], the IC50 came out at 13.3 ± 0.14 µg/mL (≈ 86.4 µM).
Turning to `C[C@H]1CCCC(=O)CCC/C=C/c2cc(O)cc(O)c2C(=O)O1` [Zearalenone], in data set [1], the IC50 amounted to 9.71 ± 0.17 µg/mL (≈ 30.5 µM). In addition, the “EC50 for toxic effects” value in data set [2] was 13.51 µg/mL.
With `O.O.O.O.O.O.O.O=S(=O)([O-])[O-].[Zn+2]` [ZnSO4, Zinc sulfate heptahydrate], the “IC50, luminescence inhibition by ZnSO4” value in data set [1] (V. qinghaiensis Q67, reference substrate, 15 min) was determined as 7640 ± 420 µg/mL. The “IC50, inhibition of relative luminescence” value with V. fischeri [4] is 26000 ± 3300 µg/mL.
Take aflatoxin B1: the 50% effective concentration (EC50) is 14.4 µg/mL in the data set with V. fischeri [5] and 23.3 µg/mL in the data set on Aliivibrio fischeri.
